The assay relates to G. piotii (Gv_17). Description: MIC and MBC microbroth dilution. Format: cell-based, Gardnerella piotii. As to conditions: for MIC / MBC: Gardnerella piotii; for MIC: 48 h. The method, then:
One of the main deficiencies in the treatment of BV is the high rate of recurrence in many women, which leads to repeated administration of antibiotics and concomitant destabilization of the microbiome and other side effects. The minimal inhibitory concentration (MIC) and minimal bactericidal concentration (MBC) on Gardnerella cells of the strains also used for the endolysin activity assays were then measured using the method described in Reference Example 6 and 7. […] Essentially, Gardnerella suspensions at 2.5×10^7 CFU/ml were incubated with the concentration of antibiotics as indicated and incubated for 48 h at 37° C. under anaerobic conditions. […] OD(610) was measured at the beginning and the end of the experiment. At the end of the experiment, 2 ul of each reaction mix was spotted on agar to determine the MBC.
The conditions under which MIC and MBC were measured are more rigorous than the standard.
Bacteria were plated from cryo stock on BD Choc Agar plates (Gardnerella) and incubated at 37° C. for 48 h under anaerobic conditions. Colonies were scraped from the plate, resuspended in Hardy Broth or NYC-III-HS-pH 5.0, and the suspension adjusted to OD (610 or 620 nm as indicated) 0.05. It has to be noted that two Tecan Microplate readers, having respectively a 610 nm or 620 nm filter, have been used interchangeably in the experiments. Although it doesn't make any difference for the experiments, the exact wavelength used is specified in each example. Antibiotics were prepared as 20× stocks for each of the required final concentrations. 95 μl of cell suspension was mixed with 5 μl antibiotics dilution in a 384-well plate. OD (610-620 as indicated) at the start of the reaction was measured, then the plate was incubated at 37° C. for 48 h under anaerobic conditions. After that, the OD (610-620 as indicated) was measured again for MIC determination, where MIC was defined as the lowest concentration of antibiotic where the OD (610-620 as indicated) was not above the level measured at the beginning of the experiment. After measuring OD, 2 μl of each well were spotted on a NYC-III+HS Agar plate. The plates were then incubated for further 48 h at 37° C. under anaerobic conditions. After incubation, cell growth on each spot was evaluated, and the MBC defined as the lowest concentration of antibiotics where no bacteria grew on the plate. The experiments were conducted in triplicate for each condition. In the second round of MIC and MBC experiments with antibiotics the Gardnerella cell suspension was adjusted to the McFarland standard 0.5 (approximately OD (610) 0.07) and then diluted 1:75 according to the CLSI (Clinical and Laboratory Standards Institute) standards. Antibiotics were prepared according to the CLSI standards and 50 μl of cell suspension was mixed in a 96-well plate with 50 μl antibiotics. Otherwise the MIC and MBC was determined as described above. For the MIC and MBC determination of the domain swapped endolysin H2B10 50 μl of Gardnerella cell suspension was mixed in a 96-well plate with 50 μl of H2B10 containing solution, which where serially diluted 1:1. OD610 at the start of the reaction was measured, then the plate was incubated at 37° C. for 48 h under anaerobic conditions. After that, the OD(610) was measured again for MIC determination, where MIC was defined as the lowest concentration of H2B10 where the OD was not or only slightly above the level measured at the beginning of the experiment.

Values after ≈ are worked out from the molar mass of the structure shown. Where only a bound is given, the exact number is not on record here.

In general, MIC refers to the lowest concentration found to suppress growth. By MBC is commonly meant the lowest tested concentration that kills the bacteria rather than only halting them. A high value points to less potent killing. For `Cc1ncc([N+](=O)[O-])n1CCO` [Metronidazole], the MIC was found to be 64 µg/mL (≈ 374 µM) (first round: […]10^7 CFU/ml, Hardy broth, 384-well, 48 h 37° C. anaerobic) and 16 µg/mL (≈ 93.5 µM) (second round: 1×10^5-1×10^6 CFU/ml (CLSI), NYC-III broth, 96-well, 48 h anaerobic). The MBC was more than 128 µg/mL (first round: […]10^7 CFU/ml, minimal concentration fully eradicating the suspension) and 64 µg/mL (≈ 374 µM) (second round: 1×10^5-1×10^6 CFU/ml (CLSI), NYC-III broth, 96-well). Moreover, the “resistance class of MIC, Metronidazole” value (first round) is “R (>=32 μg/mi for Metronidazole)”. The “resistance class given with MBC, Metronidazole” value (second round) is recorded as “R (>=32 μg/mi for Metronidazole)”.

These data come from patent publication US20220315908A1, “NOVEL GARDNERELLA ENDOLYSINS AND USES THEREOF” (priority 2019, published 2022).
